According to the NIST ThermoML archive (doi:10.1021/acs.jced.5b00813):

Legend:
[1] = xn = mol fraction of the nth substance listed; details: 298.15 K, 100 kPa, Liquid, Vibrating tube method
[2] = 298.15 K; 100 kPa; Liquid; Vibrating tube method
[3] = refractive index (Na D-line) (dimensionless); details: 298.15 K; 101.33 kPa; Liquid; Standard Abbe refractometry
[4] = excess molar enthalpy (molar enthalpy of mixing); xn = mol fraction of the nth substance listed; details: 298.15 K, 100 kPa, Liquid, Calvet calorimetry

CCCCCCCC [octane] + CCCCC(=O)OC
Details	mass density [kg/m3]
[1], x1 = 1	698.58

CCCC(=O)OC [methyl butanoate]
Details	mass density [kg/m3]	refractive index
[2]	892.34	–
[3]	–	1.3845

CCCC(=O)OC [methyl butanoate] + CC(C)CC(C)(C)C
Details	excess molar enthalpy [kcal/mol]	mass density [kg/m3]
[1], x2 = 0	–	892.34
[1], x2 = 0.0344	–	881.71
[1], x2 = 0.0633	–	873.2
[1], x2 = 0.1096	–	860.1
[1], x2 = 0.1334	–	853.55
[1], x2 = 0.1539	–	848
[1], x2 = 0.2013	–	835.7
[1], x2 = 0.2471	–	824.1
[1], x2 = 0.2981	–	811.9
[1], x2 = 0.3973	–	789.58
[1], x2 = 0.441	–	780.3
[1], x2 = 0.5431	–	760
[1], x2 = 0.5901	–	751.22
[1], x2 = 0.6801	–	735.3
[1], x2 = 0.7243	–	727.9
[1], x2 = 0.8239	–	712.2
[1], x2 = 0.8708	–	705.2
[1], x2 = 0.8863	–	703.02
[1], x2 = 0.9158	–	698.8
[1], x2 = 0.9816	–	689.84
[4], x2 = 0.0389	0.0385	–
[4], x2 = 0.0858	0.0793	–
[4], x2 = 0.1367	0.119	–
[4], x2 = 0.1916	0.156	–
[4], x2 = 0.2446	0.186	–
[4], x2 = 0.2982	0.211	–
[4], x2 = 0.3481	0.23	–
[4], x2 = 0.3959	0.243	–
[4], x2 = 0.4256	0.251	–
[4], x2 = 0.4407	0.252	–
[4], x2 = 0.4767	0.254	–
[4], x2 = 0.5375	0.255	–
[4], x2 = 0.6052	0.246	–
[4], x2 = 0.6813	0.225	–
[4], x2 = 0.7629	0.189	–
[4], x2 = 0.8494	0.135	–
[4], x2 = 0.9353	0.0722	–

CC(C)CC(C)(C)C [2,2,4-trimethylpentane] + CCCCC(=O)OC
Details	mass density [kg/m3]
[1], x1 = 1	687.75

CCCCC(=O)OC [methyl pentanoate] + COC(C)=O
Details	excess molar enthalpy [kcal/mol]	mass density [kg/m3]
[1], x1 = 0.0496	–	922.92
[1], x1 = 0.1001	–	919.44
[1], x1 = 0.1536	–	916.04
[1], x1 = 0.2027	–	913.18
[1], x1 = 0.2511	–	910.53
[1], x1 = 0.3522	–	905.55
[1], x1 = 0.4013	–	903.35
[1], x1 = 0.4497	–	901.35
[1], x1 = 0.4935	–	899.62
[1], x1 = 0.5444	–	897.75
[1], x1 = 0.5935	–	896.01
[1], x1 = 0.6563	–	893.98
[1], x1 = 0.7383	–	891.47
[1], x1 = 0.7902	–	890.02
[1], x1 = 0.843	–	888.62
[1], x1 = 0.8918	–	887.4
[1], x1 = 0.9372	–	886.3
[1], x1 = 1	–	884.84
[4], x1 = 0.0539	0.012	–
[4], x1 = 0.113	0.0229	–
[4], x1 = 0.1716	0.0323	–
[4], x1 = 0.2347	0.0413	–
[4], x1 = 0.2915	0.0473	–
[4], x1 = 0.344	0.0521	–
[4], x1 = 0.3954	0.0552	–
[4], x1 = 0.4441	0.0571	–
[4], x1 = 0.5055	0.0569	–
[4], x1 = 0.5754	0.0545	–
[4], x1 = 0.6517	0.0507	–
[4], x1 = 0.7339	0.0425	–
[4], x1 = 0.8188	0.0301	–
[4], x1 = 0.9036	0.0179	–
